Test results published in patent US12215112B2, “CD151 inhibitors” (ESFAM BIOTECH PTY LTD, priority 2020, dated 2025).

System: PC3 cells
Experiment: xCELLigence RTCA real-time cell invasion assay (CIM plate, Matrigel) on PC3 prostate cancer cells
Assay type: cell-based
Conditions: Homo sapiens, PC-3, compound 25 uM to 1 uM, cell index monitored for 72 hours, four-parameter dose-response curve, read-out: IC50, Effect of compounds on the invention on prostate cancer cells
Experimental: The media antibiotics and serum were purchased from Invitrogen (Life Technologies). PC3 cells were purchased from ATCC (Granville, NSW, Australia). PC3 cells were expanded in cell culture T75 flasks with vented cap and then preserved in low passage number. The medium used for PC3 cells was RPMI (GlutaMAX) supplemented with 10% FCS and 1% penicillin/streptomycin (culture media). The cells were maintained at 37° C. in a humidified 95% (v/v) air/5% (v/v) CO2 environment and were grown up to 80% confluence.
XCELLigence® real-time cell analysis (RTCA) instrument (ACEA Biosciences), 16-well ACEA CIM-Plates, 16-well ACEA E-Plat and assembly tool were purchased from ELITechGroup empowering IVD (Braeside, Australia). The Matrigel was purchased from Corning (Australia).
To measure cell invasion under compound treatment the upper chamber of the CIM plate was coated with 5% Matrigel diluted in SF RPMI (20 μl) and incubated in a 37° C. tissue culture incubator for four hours. Using the assembly tool to support the chambers the lower chamber was filled with (160 μl) of culture media containing the compound in specific concertation from 25 uM to 1 uM and two controls (DMSO 0.1% and ESFAM 4C 10 uM) (see the schematic in FIG. 1). Once the upper chamber was placed on the top of the lower chamber it was loaded with (40 μl) serum-free (SF) RPMI containing the compound as previously stated. After one hour calibration in 37° C., plates were placed into the xCELLigence station, and the base-line electric impedance was measured to confirm that all wells and connections were working properly. In case of connection problem, the software automatically informs the researcher about the nature of the problem in the message section. Subsequently cells were trypsinized and upon harvesting and counting they were diluted in SF RPMI to desired density (3×10^4) and seeded (100 μl) in the wells. After 30 minutes of incubation in room-temperature to allow cell attachment the plates were loaded in the xCELLigence RTCA DP machine. The cell invasion was monitored in real-time for the duration of 72 hours. […]
The xCELLigence system automatically monitored the electrical impedance value of each well and expressed as a cell index (CI) value for the duration of 72 hours. The data for treatments was automatically grouped as the mean±standard deviation. The software version used in these experiments is 1.2.1. The electronic record of the experimental data is automatically saved in file that cannot be altered or changed by the researcher.
Statistical analysis was performed using Microsoft® Office EXCEL and GraphPad Prism 7. The IC50 was calculated from the four-parameter dose-response curve (log(inhibitor) vs. response-variable slopes). Where the row-data was inserted in GraphPad Prism 7 (Dose response x-log(dose)) and analysed for XY nonlinear regression (curve fit), dose response-inhibition, log(inhibitor) vs response variable slope (four parameters). For the IC90 calculation the log(IC50)=log(IC90)-(1/HillSlope)*log(9) equation was used in EXCEL based on the raw data extracted from xCELLigence system and the dose-response curve.

## COc1ccc(NC(=O)c2cc3nc(N4Cc5ccccc5C4)cc(-c4cn[nH]c4)n3n2)cc1 [Compound 54, 5-(isoindolin-2-yl)-N-(4-methoxyphenyl)-7-(1H-pyrazol-4-yl)pyrazolo[1,5-a]pyrimidine-2-carboxamide]
  IC50: 1.65 µM

## CCOc1ccc(NC(=O)c2cc3nc(N4Cc5ccccc5C4)cc(-c4cn[nH]c4)n3n2)cc1 [Compound 55, N-(4-ethoxyphenyl)-5-(isoindolin-2-yl)-7-(1H-pyrazol-4-yl)pyrazolo[1,5-a]pyrimidine-2-carboxamide]
  IC50: 7.86 µM

## CC(C)Oc1ccc(NC(=O)c2cc3nc(N4Cc5ccccc5C4)cc(-c4cn[nH]c4)n3n2)cc1 [Compound 56, 5-(isoindolin-2-yl)-N-(4-isopropoxyphenyl)-7-(1H-pyrazol-4-yl)pyrazolo[1,5-a]pyrimidine-2-carboxamide]
  IC50: 2.83 µM

## COc1cccc(NC(=O)c2cc3nc(N4Cc5ccccc5C4)cc(-c4cnn(C)c4)n3n2)c1 [Compound 57, 5-(isoindolin-2-yl)-N-(3-methoxyphenyl)-7-(1-methyl-1H-pyrazol-4-yl)pyrazolo[1,5-a]pyrimidine-2-carboxamide]
  IC50: 2.59 µM

## Cn1cc(-c2cc(N3Cc4ccccc4C3)nc3cc(C(=O)Nc4cccc(O)c4)nn23)cn1 [Compound 58, N-(3-hydroxyphenyl)-5-(isoindolin-2-yl)-7-(1-methyl-1H-pyrazol-4-yl)pyrazolo[1,5-a]pyrimidine-2-carboxamide]
  IC50: 10.1 µM

## COc1cccc(NC(=O)c2cc3nc(N4Cc5ccccc5C4)cc(-c4c(C)nn(C)c4C)n3n2)c1 [Compound 59, 5-(isoindolin-2-yl)-N-(3-methoxyphenyl)-7-(1,3,5-trimethyl-1H-pyrazol-4-yl)pyrazolo[1,5-a]pyrimidine-2-carboxamide]
  IC50: 4.38 µM

## Cc1nn(C)c(C)c1-c1cc(N2Cc3ccccc3C2)nc2cc(C(=O)Nc3cccc(O)c3)nn12 [Compound 60, N-(3-hydroxyphenyl)-5-(isoindolin-2-yl)-7-(1,3,5-trimethyl-1H-pyrazol-4-yl)pyrazolo[1,5-a]pyrimidine-2-carboxamide]
  IC50: 7.39 µM

## COc1cccc(NC(=O)c2cc3nc(N4Cc5ccc(Cl)cc5C4)cc(-c4cn[nH]c4)n3n2)c1 [Compound 61, 5-(5-chloroisoindolin-2-yl)-N-(3-methoxyphenyl)-7-(1H-pyrazol-4-yl)pyrazolo[1,5-a]pyrimidine-2-carboxamide]
  IC50: 3.68 µM

## O=C(Nc1cccc(O)c1)c1cc2nc(N3Cc4ccc(Cl)cc4C3)cc(-c3cn[nH]c3)n2n1 [Compound 62, 5-(5-chloroisoindolin-2-yl)-N-(3-hydroxyphenyl)-7-(1H-pyrazol-4-yl)pyrazolo[1,5-a]pyrimidine-2-carboxamide]
  IC50: 5.22 µM

## COc1cccc(NC(=O)c2cc3nc(N4Cc5ccc(F)cc5C4)cc(-c4cn[nH]c4)n3n2)c1 [Compound 63, 5-(5-fluoroisoindolin-2-yl)-N-(3-methoxyphenyl)-7-(1H-pyrazol-4-yl)pyrazolo[1,5-a]pyrimidine-2-carboxamide]
  IC50: 4.65 µM

## O=C(Nc1cccc(O)c1)c1cc2nc(N3Cc4ccc(F)cc4C3)cc(-c3cn[nH]c3)n2n1 [Compound 64, 5-(5-fluoroisoindolin-2-yl)-N-(3-hydroxyphenyl)-7-(1H-pyrazol-4-yl)pyrazolo[1,5-a]pyrimidine-2-carboxamide]
  IC50: 9.59 µM

## COc1cccc(NC(=O)c2nn3c(-c4cn[nH]c4)cc(N4Cc5ccccc5C4)nc3c2C)c1 [Compound 66, 5-(isoindolin-2-yl)-N-(3-methoxyphenyl)-3-methyl-7-(1H-pyrazol-4-yl)pyrazolo[1,5-a]pyrimidine-2-carboxamide]
  IC50: 19.7 µM

## Cc1c(C(=O)Nc2cccc(OC(F)(F)F)c2)nn2c(-c3cn[nH]c3)cc(N3Cc4ccccc4C3)nc12 [Compound 67, 5-(isoindolin-2-yl)-3-methyl-7-(1H-pyrazol-4-yl)-N-(3-(trifluoromethoxy)phenyl)pyrazolo[1,5-a]pyrimidine-2-carboxamide]
  IC50: 5.94 µM

## Cc1c(C(=O)Nc2cccc(O)c2)nn2c(-c3cn[nH]c3)cc(N(C)Cc3ccccc3)nc12 [Compound 68, 5-(benzyl(methyl)amino)-N-(3-hydroxyphenyl)-3-methyl-7-(1H-pyrazol-4-yl)pyrazolo[1,5-a]pyrimidine-2-carboxamide]
  IC50: 5.76 µM

## COc1cccc(NC(=O)c2nn3c(-c4cn[nH]c4)cc(N(C)Cc4ccccc4)nc3c2C)c1 [Compound 69, 5-(benzyl(methyl)amino)-N-(3-methoxyphenyl)-3-methyl-7-(1H-pyrazol-4-yl)pyrazolo[1,5-a]pyrimidine-2-carboxamide]
  IC50: 1.9 µM

## Cc1c(C(=O)Nc2cccc(OC(F)(F)F)c2)nn2c(-c3cn[nH]c3)cc(N(C)Cc3ccccc3)nc12 [Compound 70, 5-(benzyl(methyl)amino)-3-methyl-7-(1H-pyrazol-4-yl)-N-(3-(trifluoromethoxy)phenyl)pyrazolo[1,5-a]pyrimidine-2-carboxamide]
  IC50: 5.87 µM

## CC(C)c1c(C(=O)Nc2cccc(O)c2)nn2c(-c3cn[nH]c3)cc(N3Cc4ccccc4C3)nc12 [Compound 71, N-(3-hydroxyphenyl)-5-(isoindolin-2-yl)-3-isopropyl-7-(1H-pyrazol-4-yl)pyrazolo[1,5-a]pyrimidine-2-carboxamide]
  IC50: 3.15 µM

## COc1cccc(NC(=O)c2nn3c(-c4cn[nH]c4)cc(N4Cc5ccccc5C4)nc3c2C(C)C)c1 [Compound 72, 5-(isoindolin-2-yl)-3-isopropyl-N-(3-methoxyphenyl)-7-(1H-pyrazol-4-yl)pyrazolo[1,5-a]pyrimidine-2-carboxamide]
  IC50: 2.91 µM

## CC(C)c1c(C(=O)Nc2cccc(OC(F)(F)F)c2)nn2c(-c3cn[nH]c3)cc(N3Cc4ccccc4C3)nc12 [Compound 73, 5-(isoindolin-2-yl)-3-isopropyl-7-(1H-pyrazol-4-yl)-N-(3-(trifluoromethoxy)phenyl)pyrazolo[1,5-a]pyrimidine-2-carboxamide]
  IC50: 4.91 µM

## CC(C)c1c(C(=O)Nc2cccc(O)c2)nn2c(-c3cn[nH]c3)cc(N(C)Cc3ccccc3)nc12 [Compound 74, 5-(benzyl(methyl)amino)-N-(3-hydroxyphenyl)-3-isopropyl-7-(1H-pyrazol-4-yl)pyrazolo[1,5-a]pyrimidine-2-carboxamide]
  IC50: 1.34 µM

## COc1cccc(NC(=O)c2nn3c(-c4cn[nH]c4)cc(N(C)Cc4ccccc4)nc3c2C(C)C)c1 [Compound 75, 5-(benzyl(methyl)amino)-3-isopropyl-N-(3-methoxyphenyl)-7-(1H-pyrazol-4-yl)pyrazolo[1,5-a]pyrimidine-2-carboxamide]
  IC50: 5.68 µM

## CC(C)c1c(C(=O)Nc2cccc(OC(F)(F)F)c2)nn2c(-c3cn[nH]c3)cc(N(C)Cc3ccccc3)nc12 [Compound 76, 5-(benzyl(methyl)amino)-3-isopropyl-7-(1H-pyrazol-4-yl)-N-(3-(trifluoromethoxy)phenyl)pyrazolo[1,5-a]pyrimidine-2-carboxamide]
  IC50: 11.6 µM

## COc1cccc(NC(=O)c2nn3c(-c4cn[nH]c4)cc(N4Cc5ccc(F)cc5C4)nc3c2C(C)C)c1 [Compound 77, 5-(5-fluoroisoindolin-2-yl)-3-isopropyl-N-(3-methoxyphenyl)-7-(1H-pyrazol-4-yl)pyrazolo[1,5-a]pyrimidine-2-carboxamide]
  IC50: 11 µM

## CC(=O)Nc1cccc(NC(=O)c2nn3c(-c4cn[nH]c4)cc(N4Cc5ccc(F)cc5C4)nc3c2C(C)C)c1 [Compound 78, N-(3-acetamidophenyl)-5-(5-fluoroisoindolin-2-yl)-3-isopropyl-7-(1H-pyrazol-4-yl)pyrazolo[1,5-a]pyrimidine-2-carboxamide]
  IC50: 3.03 µM

## CC(=O)N1CCN(c2cccc(NC(=O)c3nn4c(-c5cn[nH]c5)cc(N5Cc6ccc(F)cc6C5)nc4c3C(C)C)c2)CC1 [Compound 79, N-(3-(4-acetylpiperazin-1-yl)phenyl)-5-(5-fluoroisoindolin-2-yl)-3-isopropyl-7-(1H-pyrazol-4-yl)pyrazolo[1,5-a]pyrimidine-2-carboxamide]
  IC50: 4.05 µM

## CC(=O)N1CCN(c2ccc(NC(=O)c3nn4c(-c5cn[nH]c5)cc(N5Cc6ccc(F)cc6C5)nc4c3C(C)C)cc2)CC1 [Compound 80, N-(4-(4-acetylpiperazin-1-yl)phenyl)-5-(5-fluoroisoindolin-2-yl)-3-isopropyl-7-(1H-pyrazol-4-yl)pyrazolo[1,5-a]pyrimidine-2-carboxamide]
  IC50: 1 µM
